# Assays:
# [1] = system: human dermal fibroblast cells; conditions: cited from earlier work
# [2] = system: Pseudomonas aeruginosa MDR strain; experiment: Interaction of drugs with silver nano particles, checkerboard macrodilution (FICI); assay type: cell-based; conditions: drug in combination with biologically stabilized silver nano particles
# Description: Interaction of drugs with biologically stabilized silver nano particles. A two-dimensional checkerboard macrodilution technique was used to characterize interactions between biologically stabilized silver nano particles and drug (viz. Gentamicin, Penicillin, Cefotaxime, Ceptazidime, Kanamycin, Vancomycin). six experiments were performed for Pseudomonas aeruginosa MDR strain described above. Inoculum was prepared similarly to those for susceptibility testing. Individual drug with biologically stabilized silver nano particles were diluted in serial twofold dilutions, and concentrations ranged from four fold below to four folds above the MIC. The highest dilution of the drug combination with biologically stabilized silver nano particles that inhibits the visible growth of the test organism was regarded as the fractional inhibitory concentration (FIC). The fractional inhibitory concentration (FIC) index (FICI) was used to define the interaction between the two drugs. The FICI is the sum of the FICs of each of the drugs. The FIC was calculated as follows: MIC of the drug tested in combination/MIC of the drug tested alone. The interaction was defined as synergistic if the FICI was […], as additive if the FICI was >0.5 to 1.0, as indifferent if the FICI was >1.0 to 2.0, and as antagonistic if the FICI was >2.0.
Structure (SMILES),low concentration of silver ions showing inhibitory effect [1] [μM/l],interaction by mean FICI [2]
O=[N+]([O-])[O-].[Ag+] [silver nitrate],8.2,–
CC(C)(O/N=C(\C(=O)N[C@@H]1C(=O)N2C(C(=O)[O-])=C(C[n+]3ccccc3)CS[C@H]12)c1csc(N)n1)C(=O)O [ceptazidime],–,partially synergistic

# Reference: patent US20070218555A1, “Anti-Microbial Activity Of Biologically Stabilized Silver Nano Particles” (priority 2004, published 2007)
